The test has as its target T1, ASC (Homo sapiens, UniProt Q96P20+Q9ULZ3).
T1 construct: gene PYCARD; FLAG-ASC-PYD (N-terminal FLAG-tagged pyrin domain of ASC); with NLRP3 (NLRP3-FL-Btn, C-terminal biotinylated full-length)
As to the kind of experiment: ALPHA-screen protein-protein interaction inhibition, wheat germ cell-free synthesized proteins. The class given is binding. An excerpt:
ALPHA-screen protein-protein interaction inhibition, wheat germ cell-free synthesized proteins on ASC | The interaction between NLRP3-FL-Btn and FLAG-ASC-PYD was disrupted by both KN3014 and KN8311 in a dose-dependent manner.
For orientation: In Alpha technology, singlet oxygen from a donor bead excites a nearby acceptor bead.

Structures are written as SMILES.

T1 sequence (Q9ULZ3 1-91 limits assumed): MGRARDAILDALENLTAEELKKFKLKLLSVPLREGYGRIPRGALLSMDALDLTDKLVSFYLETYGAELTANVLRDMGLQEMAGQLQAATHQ
T1 sequence (Q96P20 whole entry, the tested form may be a part): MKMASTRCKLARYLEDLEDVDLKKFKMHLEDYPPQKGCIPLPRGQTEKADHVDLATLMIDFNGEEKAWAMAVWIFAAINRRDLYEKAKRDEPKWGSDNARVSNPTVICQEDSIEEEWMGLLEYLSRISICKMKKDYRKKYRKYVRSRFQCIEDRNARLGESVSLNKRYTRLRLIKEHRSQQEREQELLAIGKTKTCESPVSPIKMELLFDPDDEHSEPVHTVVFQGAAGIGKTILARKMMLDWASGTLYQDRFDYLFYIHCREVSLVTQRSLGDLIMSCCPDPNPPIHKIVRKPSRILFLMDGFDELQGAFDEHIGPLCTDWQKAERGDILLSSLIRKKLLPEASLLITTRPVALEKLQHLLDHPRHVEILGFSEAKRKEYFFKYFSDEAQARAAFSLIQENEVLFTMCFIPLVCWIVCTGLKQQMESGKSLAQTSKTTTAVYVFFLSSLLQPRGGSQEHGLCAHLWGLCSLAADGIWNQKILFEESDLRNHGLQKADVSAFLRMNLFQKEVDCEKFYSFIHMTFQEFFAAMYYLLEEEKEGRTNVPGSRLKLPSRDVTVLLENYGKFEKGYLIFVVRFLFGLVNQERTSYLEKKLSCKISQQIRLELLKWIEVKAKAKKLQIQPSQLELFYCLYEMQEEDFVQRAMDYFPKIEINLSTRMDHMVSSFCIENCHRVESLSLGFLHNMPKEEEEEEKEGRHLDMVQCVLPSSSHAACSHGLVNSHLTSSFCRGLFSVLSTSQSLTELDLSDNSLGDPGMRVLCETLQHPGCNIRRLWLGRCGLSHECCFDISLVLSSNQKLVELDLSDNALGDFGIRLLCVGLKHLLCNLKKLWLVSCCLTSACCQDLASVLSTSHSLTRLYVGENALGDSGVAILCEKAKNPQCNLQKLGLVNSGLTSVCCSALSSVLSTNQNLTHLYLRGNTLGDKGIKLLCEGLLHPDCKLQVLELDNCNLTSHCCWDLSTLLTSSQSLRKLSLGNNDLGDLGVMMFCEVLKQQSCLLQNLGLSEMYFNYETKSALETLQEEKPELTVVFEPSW

What is called IC50 is the concentration needed to halve the response being measured. As for `Cc1ccccc1OCC(=O)NCC(c1ccc2c(c1)CCCN2C)N1CCCCC1` (stereo not shown) [KN3014, N-(2-(1-methyl-1,2,3,4-tetrahydroquinolin-6-yl)-2-(piperidin-1-yl)ethyl)-2-(o-tolyloxy)acetamide], the IC50 stood at 14.6 µM.
